# Patent US8193235B2, “Compositions and methods for establishing and maintaining stem cells in an undifferentiated state” (University of Kansas, priority 2009, dated 2012)
# “Also recorded” adds a separate entry of the source.
# What was measured:
# p90Rsk1 (Rsk1) = test: Phosphorylation of p90Rsk1; assay type: cell-based, mouse; conditions: Gö6983 alone
# Description: Western Blot Analysis. Whole cell lysates were prepared in SDS-gel loading buffer and resolved by 10% PAGE. The antibodies used for this study included β-actin Clone AC-15 from Sigma; p-STAT3 (Tyr705), p-p44/42 MAPK (tyr202/tyr204), p44/42 MAPK, GSK3β, Phospho Akt (Ser473), Akt, p-NFκβ p65 (Ser536), c-Myc, p-c-Myc (Thr58/Ser62), p-p90RSK (Thr359/Ser363), RSK1, Suz12 (D39F6), and Ezh2 (AC22) from Cell Signaling Technology; STAT3 (C-20), Oct-4 (C-10), Nanog (M-149), PKC α (C-20), PKC βI (C-16), PKC βII (C-18), PKC γ (C-19), PKC δ (C-20), PKC ζ (c-20), p-PKC ζ (Thr 410)-R, p-NFκβ p65 (ser311), and RelA (p65) from Santa Cruz Biotechnology; p-LGL1/LGL2 (S650/S654), SSEA4and H3K4Me3 from Abcam; LGL2 (M06), clone 4G2 from Abnova; β-Catenin from BD Transduction Laboratories, and H3K27Me3 and H3K9Me3 from Millipore.
# endothelial cells = conditions: Dutta, et al. (2008); cited from earlier work
# Stat3−/− ES cells = Stat3−/− ES cells in serum-free N2B27 medium; assay type: cell-based, mouse
# Description: Stat3^−/− ES Cells. Passage 12 Stat3^−/− ES cells were maintained on N2B27 medium with 1 μM PD0325901 and 3 μM CHIR99021 and passaged every 3-4 days. For studies involving Gö6983, around 1-2×10^4 cells were plated on 6-well plates having N2B27 medium with or without 5 μM Gö6983 and analyzed for the expression of pluripotency markers.
# 129/Sv MEFs = test: Generation of iPS cells from MEFs; assay type: cell-based, mouse
# Description: Generation of iPS Cells. iPSCs were derived using lentiviral vectors (STEMGENT), expressing four mouse transcription factors (Oct4, Sox2, Klf4 […] c-Myc) under the control of the doxycycline (Dox)-inducible tetO operator. 129/Sv MEFs were infected with viral mix following manufacturer's protocol. Twenty hours post-transduction, cells were reseeded in ES cell growth medium with either LIF or Gö6983 at a density of 5×10^4 cells per well of a 6-well plate and treated with Dox (2 μg/ml) for 48 hours. To determine the phenotype of the iPS colonies, expression of two pluripotency markers, Nanog and Rex-1, were analyzed. For further analysis, each visible iPS colony was manually picked, trypsinized, cells were re-plated at clonal and higher density in medium with Gö6983 and the expression of pluripotent markers were confirmed by RT-PCR and immunofluorescence. For chimera generation, cells from two different iPS clones were propagated at clonal density with Gö6983, expanded for four passages and were injected into blastocysts.
# β-catenin = test: Cytosolic β-catenin stabilization assay; assay type: cell-based, mouse; conditions: mESCs
# Description: Cytosolic β-Catenin Stabilization Assay. ES cells were treated with Wnt3A-conditioned medium or Gö6983 or LIF for 10 hours, and lysed hypotonically on ice with 1× TE (pH 7.4) with protease inhibitors. Lysates were centrifuged at 100,000 g at 4° C. for 45 minutes to collect and analyze cytosolic fractions.
# c-Myc = test: GSK-3β-mediated phosphorylation of c-Myc at T58; assay type: cell-based, mouse; conditions: Gö6983 alone
# DCIS.com cells = test: Mamosphere formation of breast cancer cells; assay type: cell-based
# Description: In addition to ES and iPS cells, it was determined whether blockade of PKC signaling facilitated the propagation of cancer stem cells. To that end, mamosphere formation of a breast cancer cell type known as DCIS.com was analyzed. Mamospheres are specialized structures formed by breast cancer cell types and are indicative of presence and propagation of breast cancer stem cells. […] Therefore, blockade of PKC signaling can be used to efficiently propagate and expand cancer stem cells.
# E14 ES cells = test: ES cell differentiation on collagen IV and with retinoic acid; assay type: cell-based, mouse
# Source text: ES Cell Differentiation on Collagen-IV and With Retinoic Acid. To differentiate ES cells in monolayer culture on collagen IV, around 3×10^4 cells per well were transferred to collagen IV-coated 6-well plates (BD Biosciences, Franklin Lakes, N.J.) cultured for 5 days in ES differentiation medium containing DMEM (Invitrogen), 15% FBS (selected for endothelial differentiation, Stem Cell Technologies, Vancouver, BC), sodium pyruvate and L-glutamine with or without LIF and Gö6983, and were recovered by cell dissociation buffer (BD Biosciences, Franklin Lakes, N.J.). For culturing multiple passages with Gö6983 on collagen-IV, the recovered cells were again plated at a density of ˜3×10^4 cells per well and cultured again for 5 days. […] For RA-induced differentiation on monolayer culture, ES cells were treated with all-trans-retinoic acid (Sigma, St. Louis, Mo.) in ethanol at a concentration of 1 μM with or without LIF and Gö6983 for 6 days followed by study of expression of pluripotency markers (by immunofluorescence or western blot or RT-PCR analysis).
# C57BL/6 blastocysts = test: Chimera generation and germ-line transmission by blastocyst injection; assay type: in vivo, mouse
# Description: Chimera Generation and Germ-Line Transmission. Prepubertal (3 weeks of age) donor C57BL/6 female mice (Jackson Laboratory, Bar Harbor, Me.) were superovulated, mated overnight to intact C57BL/6 stud males and euthanized by cervical dislocation on day 3.5. Uteri were collected after euthanasia and flushed with M2 medium (Millipore, Bilerica, Mass.) for the collection of blastocysts. Eight to ten ES or iPS cells were injected into the blastocoel of each blastocyst. After injection, the blastocysts were surgically transferred into recipient females that were pseudopregnant by mating with vasectomized males. Recipient females carried the pups to term and nursed until weaning at three weeks. High-level chimeras, generated from newly derived ES cells, were mated with C57BL/6 adult mice to test for germline transmission.
compound,measurement,setting,value
"COc1ccc2c(c1)c(C1=C(c3c[nH]c4ccccc34)C(=O)NC1=O)cn2CCCN(C)C [Gö6983, 3-[1-[3-(dimethylamino)propyl]5-methoxy-1H-indol-3-yl]-4-(1H-indol-3-yl)-1H-pyrrole-2,5-dione]",phosphorylation of Rsk1,p90Rsk1 (Rsk1),not inhibited
same,angiogenic signal-induced VEGFR1 expression in endothelial cells,endothelial cells,inhibits angiogenic signal-induced VEGFR1 expression
same,differentiation of Stat3−/− ES cells,Stat3−/− ES cells,efficiently prevented differentiation
same,efficiency of obtaining matured iPSC colonies compared to LIF,129/Sv MEFs; FIG. 4B,three fold higher
same,time to appearance of ES cell-like iPSC colonies,"129/Sv MEFs; MEFs with Oct4, Sox2, KLF4, cMyc",12 days
same,rate of obtaining iPSC colonies compared to LIF,"129/Sv MEFs; colonies defined by Nanog and Rex-1, FIG. 4A",significantly faster rate
same,propagation of iPSCs at clonal density,129/Sv MEFs; with Gö6983,readily propagated at clonal density
same,β-catenin stabilization,β-catenin,did not stabilize
same,GSK-3β-mediated phosphorylation of c-Myc at T58 residue,c-Myc,did not inhibit
same,mamosphere formation,DCIS.com cells,efficiently generated mamospheres
same,multidifferentiation potential upon withdrawal of Gö6983,"E14 ES cells; ES cells maintained five passages with Gö6983, then withdrawal, FIG. 1E",readily formed EBs or differentiated on collagen IV with induction of lineage-specific gene expression
same,ES cell differentiation in the presence of collagen IV or retinoic acid,E14 ES cells; absence of LIF,inhibited ES cell differentiation
same,lineage-specific gene expression on collagen IV,"E14 ES cells; quantitative RT-PCR, FIG. 1D",repression of lineage-specific gene expression
same,differentiation during continuous culture on collagen IV plates,"E14 ES cells; without LIF, up to 8 consecutive passages",without any noticeable differentiation
same,chimera generation from E14 ES cells maintained with Gö6983,"C57BL/6 blastocysts; 7 passages with Gö6983, injected into C57Bl/6 blastocysts",yielded multiple chimeric mice; also recorded: efficiently generated chimeras
same,Chimera #,"C57BL/6 blastocysts; E14 cells, 59 blastocysts injected, 7 pups",5
same,# of Chimera showing Germline Transmission,C57BL/6 blastocysts; ES 1 (line derived with Gö6983),3
same,Chimera #,"C57BL/6 blastocysts; ES 1 (line derived with Gö6983), 45 blastocysts injected, 15 pups",5
same,# of Chimera showing Germline Transmission,C57BL/6 blastocysts; ES 2 (line derived with Gö6983),2
same,Chimera #,"C57BL/6 blastocysts; ES 2 (line derived with Gö6983), 38 blastocysts injected, 6 pups",2
same,Chimera #,"C57BL/6 blastocysts; iPSC 1, 18 blastocysts injected, 5 pups",3
same,Chimera #,"C57BL/6 blastocysts; iPSC 2, 30 blastocysts injected, 6 pups",3
same,chimera generation from Gö6983-derived iPS cells,C57BL/6 blastocysts; injected into blastocysts,generate chimeric mice
same,chimera and germline contribution of Gö6983-derived ES cells,"C57BL/6 blastocysts; two lines after six passages, chimeras crossed with C57BL/6 adults","successfully generated adult chimera, which produced germline offsprings"
